Data taken from patent US9573913B2, “Cathepsin cysteine protease inhibitors” (Merck Sharp & Dohme Corp., priority 2013, dated 2017).

Key:
human cathepsin K = human cathepsin K (UniProt P43236); assay: Cathepsin K Assay (hrbCat K); type: biochemical; conditions: Z-Leu-Arg-AMC substrate, pH 5.5, 15 min preincubation; read-out: hrbCat K (IP (nM))
Summary of the method: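 Human cathepsin K (0.4 nM) was preincubated 15 min at room temperature with compound in 50 mM MES pH 5.5, 2.5 mM EDTA, 2.5 mM DTT and 10% DMSO. Inhibition was fitted to a dose-response model.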

human cathepsin F = target: T1, human cathepsin F (Homo sapiens, UniProt Q9UBX1); assay: Cathepsin F assay (hCat F); type: biochemical; conditions: Z-Phe-Arg-AMC substrate, pH 5.5, 15 min preincubation; read-out: hCat F (IP (nM))
T1 sequence (Q9UBX1 271-484): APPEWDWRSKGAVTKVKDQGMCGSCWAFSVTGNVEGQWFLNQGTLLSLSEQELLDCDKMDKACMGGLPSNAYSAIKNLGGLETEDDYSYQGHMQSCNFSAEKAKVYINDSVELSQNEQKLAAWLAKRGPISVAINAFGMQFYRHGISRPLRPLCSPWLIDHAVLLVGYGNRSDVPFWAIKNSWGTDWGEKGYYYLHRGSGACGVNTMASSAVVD
Summary of the method: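 Enzyme (10 nM) was preincubated 15 min at room temperature with compounds (1/3 DMSO dilution series, 500–0.025 μM) in 50 mM MES pH 5.5, 2.5 mM EDTA, 2.5 mM DTT, 10% DMSO. Z-Phe-Arg-AMC (8 μM) was added and AMC fluorescence (Ex 360/Em 460 nm) followed for 20 min. % inhibition was fitted to dose-response curves.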

N#CC1(NC(=O)[C@@H]2C[C@H](F)CC[C@H]2c2nc(-c3ccc(F)cc3)sc2-c2ccc(N3CCS(=O)(=O)CC3)cc2)CC1 [Example 45, (1R,2R,5R)-N-(1-cyanocyclopropyl)-2-(5-(4-(1,1-dioxidothiomorpho-lino)phenyl)-2-(4-fluorophenyl)thiazol-4-yl)-5-fluorocyclohexane-carboxamide]
IC50 (human cathepsin K): 1.5 nM
IC50 (human cathepsin F): 197 nM

N#CC1(NC(=O)[C@@H]2C[C@@H](F)CC[C@H]2c2nc(-c3cccnc3)sc2-c2ccc(N3CCS(=O)(=O)CC3)cc2)CC1 [Example 46, (1R,2R,5S)-N-(1-cyanocyclopropyl)-2-(5-(4-(1,1-dioxidothiomorpho-lino)phenyl)-2-(pyridin-3-yl)thiazol-4-yl)-5-fluorocyclohexane-carboxamide]
IC50 (human cathepsin K): 1.1 nM
IC50 (human cathepsin F): 1980 nM

N#CC1(NC(=O)[C@@H]2CCCC[C@H]2c2nc(-c3ccc(F)cn3)sc2-c2ccc(N3CCS(=O)(=O)CC3)cc2)CC1 [Example 47, (1R,2R)-N-(1-cyanocyclopropyl)-2-(5-(4-(1,1-dioxidothiomorpho-lino)phenyl)-2-(5-fluoropyridin-2-yl)thiazol-4-yl)cyclohexane-carboxamide]
IC50 (human cathepsin K): 1.3 nM
IC50 (human cathepsin F): 1520 nM

N#CC1(NC(=O)[C@@H]2CCCC[C@H]2c2nc(-c3cncc(Cl)c3)sc2-c2ccc(N3CCS(=O)(=O)CC3)cc2)CC1 [Example 48, (1R,2R)-2-(2-(5-chloropyridin-3-yl)-5-(4-(1,1-dioxidothiomorpho-lino)phenyl)thiazol-4-yl)-N-(1-cyanocyclopropyl) cyclohexanecarbox-amide]
IC50 (human cathepsin K): 0.8 nM
IC50 (human cathepsin F): 650 nM

N#CC1(NC(=O)[C@@H]2CC(F)(F)CC[C@H]2c2nc(-c3cccnc3)sc2-c2ccc(N3CCS(=O)(=O)CC3)cc2)CC1 [Example 49, (1R,2R)-N-(1-cyanocyclopropyl)-2-(5-(4-(1,1-dioxidothiomorpho-lino)phenyl)-2-(pyridin-3-yl)thiazol-4-yl)-5,5-difluorocyclohexane-carboxamide]
IC50 (human cathepsin K): 0.5 nM
IC50 (human cathepsin F): 49 nM

Cn1cccc(-c2nc([C@@H]3CCCC[C@H]3C(=O)NC3(C#N)CC3)c(-c3ccc(N4CCS(=O)(=O)CC4)cc3)s2)c1=O [Example 50, (1R,2R)-N-(1-cyanocyclopropyl)-2-(5-(4-(1,1-dioxidothiomorpho-lino)phenyl)-2-(1-methyl-2-oxo-1,2-dihydropyridin-3-yl)thiazol-4-yl)cyclohexane-carboxamide]
IC50 (human cathepsin K): 1.9 nM
IC50 (human cathepsin F): 879 nM

COc1ccc(-c2nc([C@@H]3CCCC[C@H]3C(=O)NC3(C#N)CC3)c(-c3ccc(N4CCS(=O)(=O)CC4)cc3)s2)cc1 [Example 51, (1R,2R)-N-(1-cyanocyclopropyl)-2-(5-(4-(1,1-dioxidothiomorpho-lino)phenyl)-2-(4-methoxyphenyl)thi-azol-4-yl)cyclohexane-carboxamide]
IC50 (human cathepsin K): 1.8 nM
IC50 (human cathepsin F): 1110 nM

Cn1cc(-c2nc([C@@H]3CCCC[C@H]3C(=O)NC3(C#N)CC3)c(-c3ccc(N4CCS(=O)(=O)CC4)cc3)s2)ccc1=O [Example 53, (1R,2R)-N-(1-cyanocyclopropyl)-2-(5-(4-(1,1-dioxidothiomorpho-lino)phenyl)-2-(1-methyl-6-oxo-1,6-dihydropyridin-3-yl)thiazol-4-yl)cyclohexane-carboxamide]
IC50 (human cathepsin K): 3.8 nM
IC50 (human cathepsin F): 2770 nM

COc1ccccc1-c1nc([C@@H]2CCCC[C@H]2C(=O)NC2(C#N)CC2)c(-c2ccc(N3CCS(=O)(=O)CC3)cc2)s1 [Example 54, (1R,2R)-N-(1-cyanocyclopropyl)-2-(5-(4-(1,1-dioxidothiomorpho-lino)phenyl)-2-(2-methoxyphenyl)thi-azol-4-yl)cyclohexane-carboxamide]
IC50 (human cathepsin K): 2.1 nM
IC50 (human cathepsin F): 1000 nM

N#CC1(NC(=O)[C@@H]2CCCC[C@H]2c2nc(-c3ccccc3F)sc2-c2ccc(N3CCS(=O)(=O)CC3)cc2)CC1 [Example 55, (1R,2R)-N-(1-cyanocyclopropyl)-2-(5-(4-(1,1-dioxidothiomorpho-lino)phenyl)-2-(2-fluorophenyl)thiazol-4-yl)cyclohexane-carboxamide]
IC50 (human cathepsin K): 2.5 nM
IC50 (human cathepsin F): 1120 nM
